What all share (assay): relative viability (nuclei count vs DMSO), 5 days (fraction); higher = more cells survive
Compound in assay [1]: C1=CC2=NC=CN=C2C=C1/C=C/3\C(=O)NC(=O)S3 + CS(=O)(=O)N1CCN(Cc2cc3nc(-c4cccc5[nH]ncc45)nc(N4CCOCC4)c3s2)CC1 [Pictilisib] (partner 1 µM)
In short, it runs like this:
(§1)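 Nuclei were stained with Hoechst during a one-step fixation (final 0.05% Triton X-100, 1% formaldehyde, 1 ug/ml Hoechst) carried out 5 days after dosing, then counted on 4× images. The cells, lung cancer lines in 1536-well plates, had been dosed by pin tool the day after seeding with one drug alone or a fixed anchor-drug dose plus five library-drug doses (not always all listed) in √10 steps. Relative viability is the nuclei count in treated wells divided by that in vehicle wells, and each value is the median of duplicate plates.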

Compound in assay [2]: C1=CC2=NC=CN=C2C=C1/C=C/3\C(=O)NC(=O)S3 + CC(C)C[C@H](NC(=O)[C@H](Cc1ccccc1)NC(=O)c1cnccn1)B(O)O [Bortezomib] (partner 0.002 µM)
In a few lines: as §1

Compound in assay [3]: C1=CC2=NC=CN=C2C=C1/C=C/3\C(=O)NC(=O)S3 + O=C(c1cc(Cc2n[nH]c(=O)c3ccccc23)ccc1F)N1CCN(C(=O)C2CC2)CC1 [Olaparib] (partner 8 µM)
In a few lines: as §1

Compound in assay [4]: CCN1CCN(c2ccc(Nc3cc(N(C)C(=O)Nc4c(Cl)c(OC)cc(OC)c4Cl)ncn3)cc2)CC1 [BGJ398] + Cc1nc(Nc2ncc(C(=O)Nc3c(C)cccc3Cl)s2)cc(N2CCN(CCO)CC2)n1 [Dasatinib] (partner 0.075 µM)
In short, it runs like this: as §1

This passage reports relative viability results from the supplement of paper PMC10307832.

Consider H3255, for which the relative viability in assay [1] (first compound 0.02 µM) is 0.537; in assay [1] (first compound 0.06325 µM), 0.55; in assay [1] (first compound 0.2 µM), 0.464; in assay [1] (first compound 0.6325 µM) it was 0.503; in assay [1] (first compound 2 µM), 0.426; in assay [2] (first compound 0.02 µM), 0.869. The relative viability came to 0.91 in assay [2] (first compound 0.06325 µM); 0.778 in assay [2] (first compound 0.2 µM); 0.682 in assay [2] (first compound 0.6325 µM); 0.741 in assay [2] (first compound 2 µM); 0.583 in assay [3] (first compound 0.02 µM); 0.509 in assay [3] (first compound 0.06325 µM). For the same cell line, the relative viability was 0.56 in assay [3] (first compound 0.2 µM); 0.594 in assay [3] (first compound 0.6325 µM); 0.517 in assay [3] (first compound 2 µM); 0.399 in assay [4] (first compound 0.01 µM); 0.41 in assay [4] (first compound 0.1 µM); 0.274 in assay [4] (first compound 0.3162 µM). Moreover, in assay [4] (first compound 1 µM), the relative viability stood at 0.353.

As to HARA, the relative viability in assay [1] (first compound 0.02 µM) came to 0.44; in assay [1] (first compound 0.06325 µM), 0.485; in assay [1] (first compound 0.2 µM), 0.365; in assay [1] (first compound 0.6325 µM), 0.348; in assay [1] (first compound 2 µM), 0.31; in assay [2] (first compound 0.02 µM), 1.11. Further, the relative viability in assay [2] (first compound 0.06325 µM) worked out at 1.18; in assay [2] (first compound 0.2 µM), 1.26; in assay [2] (first compound 0.6325 µM), 1.09; in assay [2] (first compound 2 µM) it was 1.15; in assay [3] (first compound 0.02 µM), 0.899; in assay [3] (first compound 0.06325 µM), 0.54. The relative viability turned out to be 0.687 in assay [3] (first compound 0.2 µM); 1.06 in assay [3] (first compound 0.6325 µM); 0.615 in assay [3] (first compound 2 µM); 0.26 in assay [4] (first compound 0.01 µM); 0.196 in assay [4] (first compound 0.03162 µM); 0.227 in assay [4] (first compound 0.1 µM). Besides, the figures for the relative viability in assay [4] (first compound 0.3162 µM) and in assay [4] (first compound 1 µM) were 0.232 and 0.151, respectively.

For HCC-15, the relative viability in assay [1] (first compound 0.02 µM) was 0.765; in assay [1] (first compound 0.06325 µM) it was 0.787; in assay [1] (first compound 0.2 µM), 0.86; in assay [1] (first compound 0.6325 µM), 0.665; in assay [1] (first compound 2 µM) it was 0.754; in assay [2] (first compound 0.02 µM), 1.01. The relative viability in assay [2] (first compound 0.06325 µM) came to 0.995; in assay [2] (first compound 0.2 µM) it was 1.04; in assay [2] (first compound 0.6325 µM) it was 0.99; in assay [2] (first compound 2 µM), 0.966; in assay [3] (first compound 0.02 µM) it was 0.699; in assay [3] (first compound 0.06325 µM), 0.612. The relative viability in assay [3] (first compound 0.2 µM) is 0.71; in assay [3] (first compound 0.6325 µM), 0.675; in assay [3] (first compound 2 µM) it was 0.634; in assay [4] (first compound 0.01 µM), 0.648; in assay [4] (first compound 0.03162 µM) it was 0.645; in assay [4] (first compound 0.1 µM), 0.631. The relative viability worked out at 0.639 in assay [4] (first compound 0.3162 µM) and 0.576 in assay [4] (first compound 1 µM).

Regarding HCC-44, the relative viability came out at 0.615 in assay [1] (first compound 0.02 µM); 0.563 in assay [1] (first compound 0.06325 µM); 0.593 in assay [1] (first compound 0.2 µM); 0.552 in assay [1] (first compound 0.6325 µM); 0.514 in assay [1] (first compound 2 µM); 0.818 in assay [2] (first compound 0.02 µM). Also, the relative viability turned out to be 0.958 in assay [2] (first compound 0.06325 µM); 0.869 in assay [2] (first compound 0.2 µM); 0.883 in assay [2] (first compound 0.6325 µM); 0.71 in assay [2] (first compound 2 µM); 0.9 in assay [3] (first compound 0.02 µM); 1.07 in assay [3] (first compound 0.06325 µM). In addition, the relative viability was found to be 0.924 in assay [3] (first compound 0.2 µM), 0.965 in assay [3] (first compound 0.6325 µM) and 0.945 in assay [3] (first compound 2 µM).

For IA-LM, the relative viability in assay [1] (first compound 0.06325 µM) came out at 0.524; in assay [1] (first compound 0.2 µM), 0.308; in assay [1] (first compound 0.6325 µM), 0.333; in assay [1] (first compound 2 µM), 0.286; in assay [2] (first compound 0.02 µM) it was 0.654; in assay [2] (first compound 0.06325 µM), 0.918. Also, the relative viability is 0.865 in assay [2] (first compound 0.2 µM); 0.788 in assay [2] (first compound 0.6325 µM); 0.728 in assay [2] (first compound 2 µM); 0.404 in assay [3] (first compound 0.02 µM); 1.02 in assay [3] (first compound 0.06325 µM); 0.797 in assay [3] (first compound 0.2 µM). Also, the figures for the relative viability in assay [3] (first compound 0.6325 µM) and in assay [3] (first compound 2 µM) were 0.836 and 0.871, respectively.

For LK-2, the relative viability was determined as 0.678 in assay [1] (first compound 0.02 µM); 0.587 in assay [1] (first compound 0.06325 µM); 0.596 in assay [1] (first compound 0.2 µM); 0.497 in assay [1] (first compound 0.6325 µM); 0.392 in assay [1] (first compound 2 µM); 0.739 in assay [3] (first compound 0.02 µM). The relative viability in assay [3] (first compound 0.06325 µM) stood at 0.798; in assay [3] (first compound 0.2 µM), 0.758; in assay [3] (first compound 0.6325 µM) it was 0.702; in assay [3] (first compound 2 µM), 0.348; in assay [4] (first compound 0.01 µM), 0.286; in assay [4] (first compound 0.03162 µM), 0.248. For the same cell line, the relative viability in assay [4] (first compound 0.1 µM) was 0.163; in assay [4] (first compound 0.3162 µM), 0.203; in assay [4] (first compound 1 µM) it was 0.179.

For the cell line NCI-H358, the relative viability in assay [1] (first compound 0.02 µM) is 0.357; in assay [1] (first compound 0.06325 µM), 0.344; in assay [1] (first compound 0.2 µM) it was 0.402; in assay [1] (first compound 0.6325 µM), 0.38; in assay [1] (first compound 2 µM) it was 0.258; in assay [3] (first compound 0.02 µM), 0.559. In addition, the relative viability in assay [3] (first compound 0.06325 µM) turned out to be 0.663; in assay [3] (first compound 0.2 µM), 0.65; in assay [3] (first compound 0.6325 µM), 0.667; in assay [3] (first compound 2 µM), 0.419; in assay [4] (first compound 0.01 µM), 0.145; in assay [4] (first compound 0.03162 µM) it was 0.154. In addition, the relative viability in assay [4] (first compound 0.1 µM) was determined as 0.135; in assay [4] (first compound 0.3162 µM), 0.169; in assay [4] (first compound 1 µM) it was 0.205.

On to NCI-H522, for which the relative viability came out at 0.593 in assay [3] (first compound 0.02 µM); 0.561 in assay [3] (first compound 0.06325 µM); 0.723 in assay [3] (first compound 0.2 µM); 0.677 in assay [3] (first compound 0.6325 µM); 0.545 in assay [3] (first compound 2 µM); 0.641 in assay [4] (first compound 0.01 µM). Besides, the relative viability in assay [4] (first compound 0.03162 µM) was determined as 0.837; in assay [4] (first compound 0.1 µM) it was 0.785; in assay [4] (first compound 0.3162 µM), 0.779; in assay [4] (first compound 1 µM), 0.76.
